Laboratory results reported in paper PMC3003761 (ACS chemical biology, 2010).
Where two headings read alike, the source gives them in different places.

Tests used:
BoNT/A = type: in vivo, mouse; conditions: n = 10
[1] = mouse, in vivo
Shaker-IR KV channel = Shaker-IR KV channel (Drosophila melanogaster, UniProt P08510, DEL6-46); assay: cell-based
[2] = mouse, in vivo, ip, 3 mg/kg
[3] = system: serotype A botulinum neurotoxin-induced paralysis of mouse phrenic nerve-hemidiaphragm preparations
in vivo = conditions: male, CD-1, mouse, ip, 3 mg/kg
[4] = system: rat phrenic nerve-hemidiaphragm preparations; conditions: cited from earlier work

Q: Which “Rescue of BoNT/A intoxicated mice” value (BoNT/A) does the source give for `C#CC[n+]1ccc(N)c(N)c1` [Compound 11, 3,4-diamino-1-(prop-2-ynyl)pyridinium] here?
A: low efficacy

Q: And the “toxicity (distress) after compound alone” value [1]?
A: no distress was observed

Q: What about the Hill coefficient (Shaker-IR KV channel) of the same compound?
A: 1.28 ± 0.34

Q: And the IC50 (Shaker-IR KV channel; read-out: K0.5 (compound concentration required to achieve 50% inhibition))?
A: 22.2 ± 4.3 µM

Q: What about the “AUC(0-infinity) (plasma)” value [2] of the same compound?
A: 620 ng·h/mL

Q: What about the “Cmax (plasma)” value [2] of the same compound?
A: 402 ng/mL

Q: And the “Tmax (plasma)” value [2]?
A: 30 min

Q: And the “brain exposure as percentage of the plasma exposure” value [2]?
A: 13%

Q: And the plasma half-life [2]?
A: 72 min

Q: With `CC[N+](CC)(CC)CCCc1ccccc1` [Compound 12, triethyl-3-phenylpropylammonium] as the compound, how does the “Ability to reverse BoNT/A-induced muscle paralysis” value [3] read?
A: apparent neurotoxicity of the compound 12 prevented determination

Q: For `Nc1cncc(N)c1N` [Compound 5, 3,4,5-Triaminopyridine], which “Rescue of BoNT/A intoxicated mice” value (BoNT/A) is on record?
A: as effective as 3,4-DAP

Q: What about the “toxicity (distress) after compound alone” value [1] of the same compound?
A: no distress was observed

Q: What about the Hill coefficient (Shaker-IR KV channel) of the same compound?
A: 1.09 ± 0.13

Q: What about the IC50 (Shaker-IR KV channel) of the same compound?
A: 697 µM

Q: And the brain exposure [2]?
A: no detectable brain exposure

Q: And the Tmax (in vivo)?
A: 30 min

Q: And the half-life (in vivo)?
A: 18.6 min

Q: For `c1cc2nc[nH]c2cn1` [Compound 7, 5-azabenzimidazole], which “Ability to reverse BoNT/A-induced muscle paralysis” value [3] is on record?
A: unable to reverse BoNT/A-induced muscle paralysis

Q: With `C[n+]1ccc(N)c(N)c1` [Compound 4, 3,4-diamino-1-methylpyridinium] as the compound, how does the “activity in rat phrenic nerve-hemidiaphragm preparations” value [4] read?
A: inactive

Q: Which results are given for `Nc1ccncc1N` [Compound 3, 3,4 diaminopyridine, reference compound]?
A: Hill coefficient (Shaker-IR KV channel): 1.04 ± 0.18; IC50 (Shaker-IR KV channel): 26.7 ± 4 µM; Tmax (in vivo): 30 min; half-life (in vivo): 20.4 min
